Assay results from patent US5698670A, “Aureobasidins” (priority 1993, dated 1997).
Values after ≈ are worked out from the molar mass of the structure shown. Like-named read-outs stand apart in the source and are kept apart here. Numbered stars: 1 amine (or outer) side, 2 acyl side, 3 side chain; on linkers, the order of the positions; unused ones are H or OH. Square brackets hold non-standard residues; d marks the D form. Peptide text beside a SMILES is read from it. * marks the point of attachment. X1 = CC[C@@H](C)[C@@H](O[*:1])C(=O)[*:2]; NMeVal(β-OH) = CN[C@H](C(=O)O)C(C)(C)O; NMeF = CN[C@@H](Cc1ccccc1)C(=O)O; aIle = CC[C@@H](C)[C@H](N)C(=O)O; Cyclohexylmethyl = C1CCC(C*)CC1; Cha = N[C@@H](CC1CCCCC1)C(=O)O; dNMeV = CN[C@@H](C(=O)O)C(C)C; NMeV = CN[C@H](C(=O)O)C(C)C; dNMeS = CN[C@H](CO)C(=O)O; dNMeA = CN[C@H](C)C(=O)O; Bn = c1ccc(C*)cc1

Experiments:
[1] = amide bond, 27-membered ring, PyBroP/DIEA, CH2Cl2
[2] = system: Cryptococcus neoformans TIMM0354; assay type: cell-based; settings: for activity for Cryptococcus compared with Aureobasidin A: in words
Procedure: (§1) MIC was measured by agarose plate dilution method (cultivated at 30° C. for 2 days) using saburo-dextrose agarose culture (glucose 2 W/V %, polipeptone 1 W/V %, agarose 1.5 W/V %). Control was Aureobasidin A (AbA).

[3] = system: Candida albicans TIMM0171; assay: MIC by agarose plate dilution method; assay type: cell-based; settings: saburo-dextrose agarose culture, 30° C., 2 days
Procedure: as §1

[4] = system: Candida kefyr TIMM0301; assay: MIC by agarose plate dilution method; assay type: cell-based; settings: saburo-dextrose agarose culture, 30° C., 2 days
Procedure: as §1

[5] = system: Candida albicans TIMM0136; assay: MIC by agarose plate dilution method; assay type: cell-based; settings: saburo-dextrose agarose culture, 30° C., 2 days
Procedure: as §1

[6] = system: Candida glabrata TIMM1062; assay: MIC by agarose plate dilution method; assay type: cell-based; settings: saburo-dextrose agarose culture, 30° C., 2 days
Procedure: as §1

[7] = system: Aspergillus fumigatus TIMM2766; assay type: cell-based
Procedure: as §1

[8] = Cryptococcus neoformans TIMM0354, saburo-dextrose agarose culture, 30° C., 2 days
[9] = Aspergillus fumigatus TIMM2766, saburo-dextrose agarose culture, 30° C., 2 days

Compound	MIC ([2]; TIMM0354) [µg/mL]	MIC [2, 8] [µg/mL]	MIC [3] [µg/mL]	MIC [4] [µg/mL]	MIC [5] [µg/mL]	MIC [6] [µg/mL]	MIC [7, 9] [µg/mL]	other results
CC[C@@H](C)[C@@H]1NC(=O)[C@@H]2CCCN2C(=O)[C@@H](C(C)C)N(C)C(=O)[C@H](Cc2ccccc2)NC(=O)[C@H](C(C)C)N(C)C(=O)[C@@H]([C@H](C)CC)OC(=O)[C@H](C(C)(C)O)N(C)C(=O)[C@H](CC(C)C)NC(=O)[C@H](C(C)C)N(C)C1=O	–	–	–	–	–	–	–	ring closure, isolated yield ([1]; from H-aIle-MeVal-Leu-βHOMeVal-dHmp-MeVal-Phe-dMeVal-Pro-OH, 1.0 mM, 25.0 °C): 35%
CC[C@@H](C)[C@@H]1NC(=O)[C@@H]2CCCN2C(=O)[C@@H](C)N(C)C(=O)[C@H](COCc2ccccc2)NC(=O)[C@H](C(C)C)N(C)C(=O)[C@@H]([C@H](C)CC)OC(=O)[C@H](C(C)(C)O)N(C)C(=O)[C@H](CC(C)C)NC(=O)[C@H](C(C)C)N(C)C1=O [Compound 7, cyclo(L -aIle-L -MeVal-L -Leu-L -βHOMeVal-D -Hmp-L -MeVal-L -Ser(Bzl)-D -MeAla-L -Pro)] (cyclo(L[NMeVal(β-OH)][X1][NMeV]S(Bn)[dNMeA]P[aIle][NMeV]))	0.10 to 0.39	–	–	–	–	–	–	ring closure, isolated yield ([1]; from H-aIle-MeVal-Leu-βHOMeVal-dHmp-MeVal-Ser(Bzl)-dMeAla-Pro-OH, 1.0 mM, 25.0 °C): 45.2%
CC[C@@H](C)[C@@H]1NC(=O)[C@@H]2CCCN2C(=O)[C@@H](C)N(C)C(=O)[C@H](Cc2ccccc2)NC(=O)[C@H](C(C)C)N(C)C(=O)[C@@H]([C@H](C)CC)OC(=O)[C@H](C(C)(C)O)N(C)C(=O)[C@H](CC(C)C)NC(=O)[C@H](C(C)C)N(C)C1=O [Compound 1, cyclo(L -aIle-L -MeVal-L -Leu-L -βHOMeVal-D -Hmp-L -MeVal-L -Phe-D -MeAla-L -Pro)] (cyclo([aIle][NMeV]L[NMeVal(β-OH)][X1][NMeV]F[dNMeA]P))	–	3.12 (≈ 3.04 µM)	0.05 (≈ 0.0488 µM)	0.20 (≈ 0.195 µM)	0.05 (≈ 0.0488 µM)	0.20 (≈ 0.195 µM)	–	ring closure, isolated yield ([1]; from H-aIle-MeVal-Leu-βHOMeVal-dHmp-MeVal-Phe-dMeAla-Pro-OH, 0.97 mM, 25.0 °C): 55.5%
CC[C@@H](C)[C@@H]1NC(=O)[C@@H]2CCCN2C(=O)[C@@H](C)N(C)C(=O)[C@H](CC2CCCCC2)NC(=O)[C@H](C(C)C)N(C)C(=O)[C@@H]([C@H](C)CC)OC(=O)[C@H](C(C)(C)O)N(C)C(=O)[C@H](CC(C)C)NC(=O)[C@H](C(C)C)N(C)C1=O [Compound 3, cyclo(L -aIle-L -MeVal-L -Leu-L -βHOMeVal-D -Hmp-L -MeVal-L -Cha-D -MeAla-L -Pro)] (cyclo([aIle][NMeV]L[NMeVal(β-OH)][X1][NMeV][Cha][dNMeA]P))	0.10 to 0.39	0.10 (≈ 0.097 µM)	0.025 (≈ 0.0242 µM)	0.20 (≈ 0.194 µM)	0.0125 (≈ 0.0121 µM)	0.10 (≈ 0.097 µM)	3.12 (≈ 3.03 µM)	ring closure, isolated yield ([1]; from H-aIle-MeVal-Leu-βHOMeVal-dHmp-MeVal-Cha-dMeAla-Pro-OH, 1.0 mM, 25.0 °C): 28.6%; activity for Cryptococcus compared with Aureobasidin A [2]: stronger activity than Aureobasidin A; MIC ([7]; TIMM2766): 1.56 to 25 µg/mL
CC[C@@H](C)[C@@H]1NC(=O)[C@@H]2CCCN2C(=O)[C@@H](C)N(C)C(=O)[C@H](Cc2ccc(F)cc2)NC(=O)[C@H](C(C)C)N(C)C(=O)[C@@H]([C@H](C)CC)OC(=O)[C@H](C(C)(C)O)N(C)C(=O)[C@H](CC(C)C)NC(=O)[C@H](C(C)C)N(C)C1=O	–	–	–	–	–	–	–	ring closure, isolated yield ([1]; from H-aIle-MeVal-Leu-βHOMeVal-dHmp-MeVal-pFPhe-dMeAla-Pro-OH, 1.0 mM, 25.0 °C): 29.8%
CC[C@@H](C)[C@@H]1NC(=O)[C@@H]2CCCN2C(=O)[C@@H](CO)N(C)C(=O)[C@H](CC2CCCCC2)NC(=O)[C@H](C(C)C)N(C)C(=O)[C@@H]([C@H](C)CC)OC(=O)[C@H](C(C)(C)O)N(C)C(=O)[C@H](CC(C)C)NC(=O)[C@H](C(C)C)N(C)C1=O [Compound 9, cyclo(L -aIle-L -MeVal-L -Leu-L -βHOMeVal-D -Hmp-L -MeVal-L -Cha-D -MeSer-L -Pro)] (cyclo([aIle][NMeV]L[NMeVal(β-OH)][X1][NMeV][Cha][dNMeS]P))	0.10 to 0.39	0.20 (≈ 0.191 µM)	0.20 (≈ 0.191 µM)	0.78 (≈ 0.745 µM)	0.20 (≈ 0.191 µM)	0.78 (≈ 0.745 µM)	> 25	–
CC[C@@H](C)[C@@H]1NC(=O)[C@@H]2CCCN2C(=O)[C@@H](C)N(C)C(=O)[C@H](CC(C)C)NC(=O)[C@H](C(C)C)N(C)C(=O)[C@@H]([C@H](C)CC)OC(=O)[C@H](C(C)(C)O)N(C)C(=O)[C@H](CC(C)C)NC(=O)[C@H](C(C)C)N(C)C1=O [Compound 5, cyclo(L -aIle-L -MeVal-L -Leu-L -βHOMeVal-D -Hmp-L -MeVal-L -Leu-D -MeAla-L -Pro)] (cyclo(L[dNMeA]P[aIle][NMeV]L[NMeVal(β-OH)][X1][NMeV]))	0.10 to 0.39	–	–	–	–	–	–	ring closure, isolated yield ([1]; from H-aIle-MeVal-Leu-βHOMeVal-dHmp-MeVal-Leu-dMeAla-Pro-OH, 1.0 mM, 25.0 °C): 39.4%
CC[C@@H](C)[C@@H]1NC(=O)[C@@H]2CCCN2C(=O)[C@@H](C)N(C)C(=O)[C@H](Cc2ccc(OCC3CCCCC3)cc2)NC(=O)[C@H](C(C)C)N(C)C(=O)[C@@H]([C@H](C)CC)OC(=O)[C@H](C(C)(C)O)N(C)C(=O)[C@H](CC(C)C)NC(=O)[C@H](C(C)C)N(C)C1=O [Compound 12, cyclo(L -aIle-L -MeVal-L -Leu-L -βHOMeVal-D -Hmp-L -MeVal-L -Tyr(c-C6 H11 --CH2 --)-D -MeAla-L -Pro)] (cyclo([aIle][NMeV]L[NMeVal(β-OH)][X1][NMeV]Y(Cyclohexylmethyl)[dNMeA]P))	0.10 to 0.39	0.20 (≈ 0.176 µM)	0.39 (≈ 0.343 µM)	1.56 (≈ 1.37 µM)	0.10 (≈ 0.0879 µM)	0.39 (≈ 0.343 µM)	1.56 (≈ 1.37 µM)	ring closure, isolated yield ([1]; from H-aIle-MeVal-Leu-βHOMeVal-dHmp-MeVal-Tyr(c-C6H11-CH2)-dMeAla-Pro-OH, 1.0 mM): 52.3%; activity for Cryptococcus compared with Aureobasidin A [2]: stronger activity than Aureobasidin A; MIC ([7]; TIMM2766): 1.56 to 25 µg/mL
CC[C@@H](C)[C@@H]1NC(=O)[C@@H]2CCCN2C(=O)[C@@H](COCc2ccccc2)N(C)C(=O)[C@H](CC2CCCCC2)NC(=O)[C@H](C(C)C)N(C)C(=O)[C@@H]([C@H](C)CC)OC(=O)[C@H](C(C)(C)O)N(C)C(=O)[C@H](CC(C)C)NC(=O)[C@H](C(C)C)N(C)C1=O	–	–	–	–	–	–	–	ring closure, isolated yield ([1]; from H-aIle-MeVal-Leu-βHOMeVal-dHmp-MeVal-Cha-dMeSer(Bzl)-Pro-OH, 1.0 mM): 34.3%
CC[C@@H](C)[C@@H]1NC(=O)[C@@H]2CCCN2C(=O)[C@@H](C)N(C)C(=O)[C@H](Cc2ccc(OCc3ccccc3)cc2)NC(=O)[C@H](C(C)C)N(C)C(=O)[C@@H]([C@H](C)CC)OC(=O)[C@H](C(C)(C)O)N(C)C(=O)[C@H](CC(C)C)NC(=O)[C@H](C(C)C)N(C)C1=O	–	–	–	–	–	–	–	ring closure, isolated yield ([1]; from H-aIle-MeVal-Leu-βHOMeVal-dHmp-MeVal-Tyr(Bzl)-dMeAla-Pro-OH, 1.0 mM): 41.5%
CC[C@@H](C)[C@@H]1NC(=O)[C@@H]2CCCN2C(=O)[C@@H](C(C)C)N(C)C(=O)[C@H](CC2CCCCC2)NC(=O)[C@H](C(C)C)N(C)C(=O)[C@@H]([C@H](C)CC)OC(=O)[C@H](C(C)(C)O)N(C)C(=O)[C@H](CC(C)C)NC(=O)[C@H](C(C)C)N(C)C1=O [Compound 8, cyclo(L -aIle-L -MeVal-L -Leu-L -βHOMeVal-D -Hmp-L -MeVal-L -Cha-D -MeVal-L -Pro)] (cyclo([aIle][NMeV]L[NMeVal(β-OH)][X1][NMeV][Cha][dNMeV]P))	0.10 to 0.39	0.39 (≈ 0.368 µM)	0.05 (≈ 0.0472 µM)	0.78 (≈ 0.736 µM)	0.10 (≈ 0.0944 µM)	0.78 (≈ 0.736 µM)	> 25	ring closure, isolated yield ([1]; from H-aIle-MeVal-Leu-βHOMeVal-dHmp-MeVal-Cha-dMeVal-Pro-OH, 1.0 mM): 20.5%
CC[C@@H](C)[C@@H]1NC(=O)[C@@H]2CCCN2C(=O)[C@H](Cc2ccccc2)N(C)C(=O)[C@H](CC2CCCCC2)NC(=O)[C@H](C(C)C)N(C)C(=O)[C@@H]([C@H](C)CC)OC(=O)[C@H](C(C)(C)O)N(C)C(=O)[C@H](CC(C)C)NC(=O)[C@H](C(C)C)N(C)C1=O [Compound 6, cyclo(L -aIle-L -MeVal-L -Leu-L -βHOMeVal-D -Hmp-L -MeVal-L -Cha-L -MePhe-L -Pro)] (cyclo([aIle][NMeV]L[NMeVal(β-OH)][X1][NMeV][Cha][NMeF]P))	0.10 to 0.39	0.20 (≈ 0.181 µM)	0.20 (≈ 0.181 µM)	1.56 (≈ 1.41 µM)	0.39 (≈ 0.352 µM)	1.56 (≈ 1.41 µM)	> 25	ring closure, isolated yield ([1]; from H-aIle-MeVal-Leu-βHOMeVal-dHmp-MeVal-Cha-MePhe-Pro-OH?, 1.01 mM, 25.0 °C): 23.9%
